Here are results for eleven compounds from ChEMBL document CHEMBL1201862, “PubChem BioAssay data set” (2004).

SMILES strings stand for the structures.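 48-hour exposure; five concentrations; linearly interpolated endpoints. The concentration for 50% growth inhibition is given as GI50.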 The source made the active and inactive calls. Rule as the data show it: active = GI50 up to about 1.1 µM and inactive = higher.

Test systems include HOP-62; Hs-578T; TK-10; MDA-MB-231; RXF 393; OVCAR-8; UACC-257; DU-145; MOLT-4; HOP-92; EKVX; K562; PC-3; HCT-116; RPMI-8226; NCI-H226; HCT-15; UO-31; OVCAR-3; SK-MEL-28.
What all share (assay): NCI tumour cell line growth inhibition, 48 h

With `Cc1ccc([C@H]2CC(=O)C[C@H](c3ccc(C)cc3)C23C(=O)c2ccccc2C3=O)cc1`, the GI50 with HOP-62 is 22.1 µM (inactive); in the experiment with Hs-578T, 19.9 µM (inactive); with TK-10, 22.2 µM (inactive); in the experiment with MDA-MB-231 it was 54.7 µM (inactive); in the experiment on RXF 393, 19.1 µM (inactive); in the experiment on OVCAR-8, 31 µM (inactive). The GI50 is 15.4 µM (inactive) in the experiment with UACC-257; > 100 µM (inactive) in the experiment with DU-145; 27 µM (inactive) in the experiment with MOLT-4; 13.6 µM (inactive) in the experiment on HOP-92; > 100 µM (inactive) with EKVX; 23.3 µM (inactive) in the experiment with K562. The GI50 was 14.9 µM (inactive) in the experiment with PC-3; 34.6 µM (inactive) in the experiment on HCT-116; 43.2 µM (inactive) in the experiment on RPMI-8226; 34.5 µM (inactive) in the experiment with NCI-H226; 34.8 µM in the experiment with HCT-15; > 100 µM (inactive) with UO-31. The GI50 in the experiment with OVCAR-3 is 41.9 µM (inactive); in the experiment on SK-MEL-28, > 100 µM (inactive).

With `COc1cc2cc(C(=O)N3CC(COS(C)(=O)=O)c4c3cc(N)c3ccccc43)[nH]c2c(OC)c1OC` (stereo unspecified), the GI50 in the experiment with HOP-62 was 0.0191 µM (active); in the experiment with Hs-578T, 0.252 µM (active); in the experiment on TK-10, < 0.01 µM (active); in the experiment with MDA-MB-231, < 0.01 µM (active); with RXF 393 it was 0.0177 µM (active); with OVCAR-8, 0.0136 µM (active). Moreover, the GI50 is 0.0209 µM (active) in the experiment on UACC-257; 0.0154 µM (active) in the experiment with DU-145; 0.0149 µM (active) with MOLT-4; < 0.0266 µM (active) in the experiment with HOP-92; 0.0216 µM (active) in the experiment on EKVX; 0.0422 µM (active) in the experiment with PC-3. For the same compound, the GI50 in the experiment with HCT-116 is 0.0108 µM (active); in the experiment with RPMI-8226, 0.0175 µM (active); with NCI-H226, 0.0469 µM (active); in the experiment on HCT-15, less than 0.0206 µM; in the experiment on UO-31, 0.0141 µM (active); with OVCAR-3, 0.0404 µM (active). Further, the GI50 in the experiment on SK-MEL-28 was 0.0266 µM (active).

As to `COc1cc2c(cc1O)-c1c(OC)c(O)cc3c1C(C2)N(C)CC3` (stereo unspecified), the GI50 with Hs-578T, in the experiment on TK-10, with MDA-MB-231, in the experiment on RXF 393, in the experiment on OVCAR-8 and with UACC-257 was > 100 µM (inactive) each time. Moreover, the GI50 with DU-145, with MOLT-4, in the experiment on HOP-92, in the experiment with EKVX, in the experiment on PC-3 and with HCT-116 was > 100 µM (inactive) throughout. Further, the GI50 in the experiment on RPMI-8226 was > 100 µM (inactive); in the experiment on NCI-H226 it was > 100 µM (inactive); with HCT-15, more than 100 µM; with UO-31, > 100 µM (inactive); in the experiment with OVCAR-3, > 100 µM (inactive).

On to `Clc1ccc(/C(=C\c2ccccc2)Cn2ccnc2)cc1`, for which the GI50 in the experiment with HOP-62 was 15.9 µM (inactive); with Hs-578T it was > 100 µM (inactive); in the experiment with TK-10, 35.6 µM (inactive); in the experiment on MDA-MB-231, 11.1 µM (inactive); with RXF 393, 17.3 µM (inactive); with OVCAR-8, 16.1 µM (inactive). The GI50 is 19.3 µM (inactive) in the experiment on UACC-257; 20.1 µM (inactive) in the experiment on DU-145; 21.1 µM (inactive) in the experiment on MOLT-4; 14.8 µM (inactive) in the experiment with HOP-92; 21.9 µM (inactive) in the experiment with EKVX; 9.93 µM (inactive) in the experiment with K562. For the same compound, the GI50 with PC-3 was 11.5 µM (inactive); in the experiment with HCT-116 it was 14.8 µM (inactive); with RPMI-8226 it was 22.3 µM (inactive); in the experiment with NCI-H226, 13.6 µM (inactive); in the experiment with HCT-15 it was 17.8 µM; with UO-31, 5.28 µM (inactive). Moreover, the GI50 in the experiment with SK-MEL-28 is 13.3 µM (inactive).

In the case of `CCOP(=O)(OCC)/C(=C/NC(=S)c1ccncc1)C(=O)OC`, the GI50 in the experiment on HOP-62, in the experiment with Hs-578T, with TK-10, with MDA-MB-231, in the experiment with RXF 393 and with OVCAR-8 was > 100 µM (inactive) each time. The GI50 in the experiment on UACC-257, with DU-145, in the experiment on MOLT-4, with HOP-92, in the experiment on EKVX and with K562 was > 100 µM (inactive) in each case. Besides, the GI50 was > 100 µM (inactive) with PC-3; > 100 µM (inactive) with HCT-116; > 100 µM (inactive) with RPMI-8226; > 100 µM (inactive) in the experiment on NCI-H226; more than 100 µM in the experiment with HCT-15; > 100 µM (inactive) in the experiment with UO-31. Further, the GI50 in the experiment on OVCAR-3 was > 100 µM (inactive).

With `CCOC(=O)/C=C/CC(C)(C)CCOC(C)=O`, the GI50 in the experiment with HOP-62, in the experiment with Hs-578T, in the experiment on TK-10, in the experiment with MDA-MB-231, in the experiment with RXF 393 and with OVCAR-8 was > 10 µM (inactive) in each case. In addition, the GI50 with UACC-257, with DU-145, with MOLT-4, in the experiment with HOP-92, with K562 and in the experiment with PC-3 was > 10 µM (inactive) in each case. Also, the GI50 with HCT-116 is > 10 µM (inactive); in the experiment on RPMI-8226 it was > 10 µM (inactive); in the experiment with NCI-H226, > 10 µM (inactive); in the experiment on HCT-15, more than 10 µM; with UO-31 it was > 10 µM (inactive); in the experiment with OVCAR-3, > 10 µM (inactive). Also, in the experiment on SK-MEL-28, the GI50 is > 10 µM (inactive).

In the case of `Cc1cc(N(C)C)c2ccccc2[n+]1CCCCCCCCCC[n+]1c(C)cc(N(C)C)c2ccccc21.[O-][Cl+3]([O-])([O-])[O-].[O-][Cl+3]([O-])([O-])[O-]`, the GI50 is 1.52 µM (inactive) in the experiment on Hs-578T; 3.29 µM (inactive) with TK-10; 0.491 µM (active) with MDA-MB-231; 5.27 µM (inactive) in the experiment with RXF 393; 1.07 µM (active) with OVCAR-8; 0.238 µM (active) in the experiment on UACC-257. Besides, the GI50 in the experiment with DU-145 is 1.58 µM (inactive); in the experiment with MOLT-4 it was 0.687 µM (active); with HOP-92, 1.64 µM (inactive); in the experiment on EKVX it was 1.32 µM (inactive); with K562 it was 0.128 µM (active); in the experiment with PC-3, 0.589 µM (active). Moreover, the GI50 is 0.743 µM (active) with HCT-116; 0.128 µM (active) in the experiment with RPMI-8226; 3.33 µM (inactive) in the experiment on NCI-H226; 3.81 µM with HCT-15; 3.38 µM (inactive) in the experiment on UO-31; 0.486 µM (active) in the experiment on OVCAR-3. Further, the GI50 with SK-MEL-28 is 0.986 µM (active).

With `NC(Cc1cc(Br)c(O)c(Br)c1)C(=O)O` (stereo unspecified), the GI50 with HOP-62, in the experiment on Hs-578T, in the experiment with TK-10, in the experiment on MDA-MB-231, in the experiment with RXF 393 and in the experiment with OVCAR-8 was > 100 µM (inactive) in each case. The GI50 in the experiment on UACC-257, in the experiment on DU-145, in the experiment on MOLT-4, in the experiment with HOP-92, in the experiment with EKVX and in the experiment with K562 was > 100 µM (inactive) each time. In addition, the GI50 in the experiment with PC-3 is > 100 µM (inactive); in the experiment with HCT-116 it was > 100 µM (inactive); in the experiment on RPMI-8226 it was > 100 µM (inactive); in the experiment with NCI-H226 it was > 100 µM (inactive); in the experiment with HCT-15, more than 100 µM; in the experiment on OVCAR-3, > 100 µM (inactive). For the same compound, the GI50 in the experiment with SK-MEL-28 is > 100 µM (inactive).

For `CCOC(=O)C(C(=O)OCC)=C1SC(=N\c2ccccc2)/C(=N/c2ccccc2)N1c1ccccc1`, the GI50 with HOP-62 is 34.2 µM (inactive); with Hs-578T it was 90.8 µM (inactive); with MDA-MB-231 it was > 100 µM (inactive); in the experiment on RXF 393, 28.2 µM (inactive); with OVCAR-8, > 100 µM (inactive); in the experiment with DU-145 it was > 100 µM (inactive). The GI50 in the experiment on MOLT-4 was 13.3 µM (inactive); with HOP-92 it was 54 µM (inactive); with EKVX it was > 100 µM (inactive); in the experiment on K562 it was 4.48 µM (inactive); with PC-3, 58.7 µM (inactive); in the experiment with HCT-116, > 100 µM (inactive). The GI50 is > 100 µM (inactive) in the experiment with RPMI-8226; > 100 µM (inactive) in the experiment on NCI-H226; more than 100 µM in the experiment with HCT-15; > 100 µM (inactive) in the experiment on UO-31; 35.8 µM (inactive) in the experiment with OVCAR-3; > 100 µM (inactive) in the experiment with SK-MEL-28.

For `COc1ccc(O)c(/C=N\Nc2ccccc2)c1`, the GI50 in the experiment on HOP-62 is 44.7 µM (inactive); in the experiment on Hs-578T, 30.1 µM (inactive); with MDA-MB-231, 7.03 µM (inactive); with RXF 393 it was 84.3 µM (inactive); with OVCAR-8 it was 22.1 µM (inactive); in the experiment on UACC-257, 16.7 µM (inactive). In addition, the GI50 in the experiment on DU-145 is 25.5 µM (inactive); in the experiment with MOLT-4, 1.39 µM (inactive); in the experiment with HOP-92 it was 14 µM (inactive); with EKVX it was 39.7 µM (inactive); in the experiment on K562 it was 3.19 µM (inactive); with PC-3, 45.2 µM (inactive). Besides, the GI50 with HCT-116 is 22.6 µM (inactive); in the experiment with RPMI-8226 it was 0.021 µM (active); in the experiment with NCI-H226, 20.6 µM (inactive); in the experiment with HCT-15, 8.65 µM; with UO-31 it was 4.14 µM (inactive); in the experiment on SK-MEL-28 it was 25.4 µM (inactive).

Consider `CCCNC(=S)N/C=C1\C(=O)Nc2ccccc2C1=O`, for which the GI50 in the experiment with HOP-62, in the experiment on Hs-578T, with TK-10, in the experiment on MDA-MB-231, with RXF 393 and in the experiment on OVCAR-8 was > 100 µM (inactive) each time. Moreover, the GI50 in the experiment on UACC-257, in the experiment on DU-145, with MOLT-4, in the experiment with HOP-92, in the experiment with EKVX and in the experiment with K562 was > 100 µM (inactive) each time. The GI50 was > 100 µM (inactive) in the experiment with PC-3; > 100 µM (inactive) in the experiment with HCT-116; > 100 µM (inactive) in the experiment with RPMI-8226; > 100 µM (inactive) in the experiment on NCI-H226; more than 100 µM in the experiment on HCT-15; > 100 µM (inactive) in the experiment on UO-31. The GI50 in the experiment with OVCAR-3 is > 100 µM (inactive).
